In US11117892B2, “Pyrrolo-pyridine derivative compound, method for preparing same, and pharmaceutical composition containing same as active ingredient for prevention or treatment of protein kinase-related diseases” (DAEGU-GYEONGBUK MEDICAL INNOVATION FOUNDATION, priority 2017, dated 2021):

Legend:
Experiment in all cases: scanMAX Kinase assay panel
Format in all cases: binding
Conditions in all cases: read-out: % control
[1] = target: ABL1(F317L)-nonphosphorylated (Homo sapiens (Human), UniProt P00519, F317L)
Summary of the method: (§1)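 Using scanMAX, compound selectivity across kinases is determined. The output is % control, bounded by a DMSO control at 100% and a reference positive compound at 0%.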

[2] = target: ABL1-phosphorylated (Homo sapiens (Human), UniProt P00519)
Summary of the method: as §1

[3] = target: ABL2 (Homo sapiens (Human), UniProt P42684)
Summary of the method: as §1

[4] = target: ACVR1 (Homo sapiens (Human), UniProt Q04771)
Summary of the method: as §1

[5] = target: BMPR2 (Homo sapiens (Human), UniProt Q13873)
Summary of the method: as §1

[6] = target: BRSK1 (Homo sapiens (Human), UniProt Q8TDC3)
Summary of the method: as §1

[7] = target: CDK2 (Homo sapiens (Human), UniProt P24941)
Summary of the method: as §1

[8] = target: CDK9 (Homo sapiens (Human), UniProt P50750)
Summary of the method: as §1

[9] = target: CDKL5 (Homo sapiens (Human), UniProt O76039)
Summary of the method: as §1

[10] = target: DCAMKL2 (Homo sapiens (Human), UniProt Q8N568)
Chain of DCAMKL2 (Q8N568 whole entry, looked up): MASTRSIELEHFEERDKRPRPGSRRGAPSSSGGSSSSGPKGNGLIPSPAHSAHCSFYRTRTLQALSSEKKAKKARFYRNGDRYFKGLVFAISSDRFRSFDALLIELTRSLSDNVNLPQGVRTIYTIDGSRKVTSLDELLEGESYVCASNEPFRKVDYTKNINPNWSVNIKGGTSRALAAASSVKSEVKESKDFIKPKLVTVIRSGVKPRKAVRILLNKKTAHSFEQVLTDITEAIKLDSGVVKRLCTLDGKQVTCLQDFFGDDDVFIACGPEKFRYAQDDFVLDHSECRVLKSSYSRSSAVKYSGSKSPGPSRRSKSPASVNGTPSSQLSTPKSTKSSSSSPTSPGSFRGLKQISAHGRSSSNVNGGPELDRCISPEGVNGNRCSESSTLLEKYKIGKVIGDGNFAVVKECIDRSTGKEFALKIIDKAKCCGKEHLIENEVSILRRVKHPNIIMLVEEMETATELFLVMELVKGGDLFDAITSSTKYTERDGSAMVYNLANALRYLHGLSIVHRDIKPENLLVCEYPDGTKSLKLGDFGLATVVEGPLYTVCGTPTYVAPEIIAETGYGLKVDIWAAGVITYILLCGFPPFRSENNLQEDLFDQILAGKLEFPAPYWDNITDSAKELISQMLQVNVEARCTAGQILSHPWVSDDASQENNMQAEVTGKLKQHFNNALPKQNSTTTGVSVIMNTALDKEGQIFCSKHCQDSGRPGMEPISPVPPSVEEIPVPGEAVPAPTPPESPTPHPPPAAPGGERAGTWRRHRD
Summary of the method: as §1

[11] = target: DRAK1 (Homo sapiens (Human), UniProt Q9UEE5)
Summary of the method: as §1

[12] = target: EPHB2 (Homo sapiens (Human), UniProt P29323)
Summary of the method: as §1

[13] = target: EPHB3 (Homo sapiens (Human), UniProt P54753)
Summary of the method: as §1

[14] = target: ERK5 (Homo sapiens (Human), UniProt Q13164)
Summary of the method: as §1

[15] = target: FES (Homo sapiens (Human), UniProt P07332)
Summary of the method: as §1

[16] = target: HASPIN (Homo sapiens (Human), UniProt Q8TF76)
Chain of HASPIN (Q8TF76 whole entry): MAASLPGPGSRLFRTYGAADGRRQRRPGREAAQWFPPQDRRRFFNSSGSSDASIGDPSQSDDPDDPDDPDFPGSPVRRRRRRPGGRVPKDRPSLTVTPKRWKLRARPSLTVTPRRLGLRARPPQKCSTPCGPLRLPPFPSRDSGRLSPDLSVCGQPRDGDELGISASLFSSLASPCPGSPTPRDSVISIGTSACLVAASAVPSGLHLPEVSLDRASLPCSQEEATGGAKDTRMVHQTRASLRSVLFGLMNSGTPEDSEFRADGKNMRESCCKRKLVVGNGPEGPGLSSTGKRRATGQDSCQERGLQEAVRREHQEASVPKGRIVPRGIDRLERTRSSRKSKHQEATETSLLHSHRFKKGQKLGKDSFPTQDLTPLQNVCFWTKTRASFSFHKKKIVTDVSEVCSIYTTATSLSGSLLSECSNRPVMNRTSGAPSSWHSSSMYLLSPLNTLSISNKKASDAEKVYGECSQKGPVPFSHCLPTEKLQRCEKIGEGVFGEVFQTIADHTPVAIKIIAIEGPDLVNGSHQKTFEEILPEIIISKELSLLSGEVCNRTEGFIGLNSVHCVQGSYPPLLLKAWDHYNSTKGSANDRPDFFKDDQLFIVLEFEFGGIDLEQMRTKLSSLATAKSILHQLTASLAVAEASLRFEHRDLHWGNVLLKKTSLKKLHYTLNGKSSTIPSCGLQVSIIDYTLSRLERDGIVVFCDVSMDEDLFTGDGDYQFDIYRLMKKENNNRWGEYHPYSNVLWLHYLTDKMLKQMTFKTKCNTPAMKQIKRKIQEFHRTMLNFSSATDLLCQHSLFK
Summary of the method: as §1

[17] = target: IKK-alpha (Homo sapiens (Human), UniProt O15111)
Summary of the method: as §1

[18] = target: LATS1 (Homo sapiens (Human), UniProt O95835)
Summary of the method: as §1

[19] = target: MARK4 (Homo sapiens (Human), UniProt Q96L34)
Chain of MARK4 (Q96L34 whole entry): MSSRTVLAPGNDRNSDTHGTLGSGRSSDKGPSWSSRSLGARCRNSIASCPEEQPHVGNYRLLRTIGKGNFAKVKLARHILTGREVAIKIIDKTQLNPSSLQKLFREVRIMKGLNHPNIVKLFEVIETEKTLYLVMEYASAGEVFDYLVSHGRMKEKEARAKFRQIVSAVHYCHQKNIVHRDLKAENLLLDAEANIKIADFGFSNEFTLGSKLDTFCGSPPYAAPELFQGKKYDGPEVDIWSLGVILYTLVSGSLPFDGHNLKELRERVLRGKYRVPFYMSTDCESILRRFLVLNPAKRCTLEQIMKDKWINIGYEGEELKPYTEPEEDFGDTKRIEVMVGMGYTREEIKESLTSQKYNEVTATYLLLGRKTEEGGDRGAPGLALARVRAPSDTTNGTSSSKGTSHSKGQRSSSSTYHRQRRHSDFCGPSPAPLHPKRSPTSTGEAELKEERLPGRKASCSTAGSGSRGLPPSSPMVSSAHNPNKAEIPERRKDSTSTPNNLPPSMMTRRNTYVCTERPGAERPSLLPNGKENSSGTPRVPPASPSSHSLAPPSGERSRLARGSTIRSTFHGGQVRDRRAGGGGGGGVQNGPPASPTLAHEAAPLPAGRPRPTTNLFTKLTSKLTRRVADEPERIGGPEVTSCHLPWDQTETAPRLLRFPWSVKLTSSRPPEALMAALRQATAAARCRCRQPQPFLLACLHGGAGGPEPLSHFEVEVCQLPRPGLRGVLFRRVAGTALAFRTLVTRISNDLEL
Summary of the method: as §1

[20] = target: MAST1 (Homo sapiens (Human), UniProt Q9Y2H9)
Summary of the method: as §1

[21] = target: MLK2 (Homo sapiens (Human), UniProt Q02779)
Summary of the method: as §1

[22] = target: MST4 (Homo sapiens (Human), UniProt Q9P289)
Summary of the method: as §1

[23] = target: MYLK2 (Homo sapiens (Human), UniProt Q9H1R3)
Chain of MYLK2 (Q9H1R3 whole entry): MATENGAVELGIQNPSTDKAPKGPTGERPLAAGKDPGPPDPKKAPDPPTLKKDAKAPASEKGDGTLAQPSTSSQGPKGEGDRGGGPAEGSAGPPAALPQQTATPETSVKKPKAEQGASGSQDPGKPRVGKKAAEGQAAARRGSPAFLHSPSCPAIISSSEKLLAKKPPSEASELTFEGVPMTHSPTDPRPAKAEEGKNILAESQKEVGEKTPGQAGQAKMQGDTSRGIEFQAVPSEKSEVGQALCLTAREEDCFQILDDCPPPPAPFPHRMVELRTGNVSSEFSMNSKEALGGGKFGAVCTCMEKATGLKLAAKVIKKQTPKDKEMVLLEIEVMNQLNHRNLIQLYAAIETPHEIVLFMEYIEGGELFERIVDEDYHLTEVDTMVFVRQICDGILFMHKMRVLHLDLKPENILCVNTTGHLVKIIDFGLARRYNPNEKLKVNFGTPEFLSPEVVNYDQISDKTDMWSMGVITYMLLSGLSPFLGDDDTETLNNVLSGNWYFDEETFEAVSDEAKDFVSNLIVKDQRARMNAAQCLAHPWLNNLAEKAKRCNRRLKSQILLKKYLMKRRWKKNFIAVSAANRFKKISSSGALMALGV
Summary of the method: as §1

[24] = target: MYO3A (Homo sapiens (Human), UniProt Q8NEV4)
Summary of the method: as §1

[25] = target: NEK11 (Homo sapiens (Human), UniProt Q8NG66)
Summary of the method: as §1

[26] = target: NEK3 (Homo sapiens (Human), UniProt P51956)
Chain of NEK3 (P51956 whole entry): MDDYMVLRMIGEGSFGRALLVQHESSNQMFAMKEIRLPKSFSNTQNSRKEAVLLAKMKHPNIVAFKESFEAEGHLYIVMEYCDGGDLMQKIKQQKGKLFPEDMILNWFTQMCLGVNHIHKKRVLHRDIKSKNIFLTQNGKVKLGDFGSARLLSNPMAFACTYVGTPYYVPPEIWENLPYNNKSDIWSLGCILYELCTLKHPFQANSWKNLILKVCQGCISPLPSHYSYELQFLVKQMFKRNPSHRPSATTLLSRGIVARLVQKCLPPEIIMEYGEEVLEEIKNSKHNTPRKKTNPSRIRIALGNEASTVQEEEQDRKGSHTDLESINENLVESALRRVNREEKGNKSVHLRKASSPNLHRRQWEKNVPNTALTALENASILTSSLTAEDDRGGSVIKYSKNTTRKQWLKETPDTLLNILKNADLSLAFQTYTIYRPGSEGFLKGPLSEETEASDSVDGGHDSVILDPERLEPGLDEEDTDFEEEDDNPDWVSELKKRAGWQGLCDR
Summary of the method: as §1

[27] = target: PDGFRA (Homo sapiens (Human), UniProt P16234)
Summary of the method: as §1

[28] = target: PIK3C2B (Homo sapiens (Human), UniProt O00750)
Summary of the method: as §1

[29] = target: PIP5K2B (Homo sapiens (Human), UniProt P78356)
Chain of PIP5K2B (P78356 whole entry): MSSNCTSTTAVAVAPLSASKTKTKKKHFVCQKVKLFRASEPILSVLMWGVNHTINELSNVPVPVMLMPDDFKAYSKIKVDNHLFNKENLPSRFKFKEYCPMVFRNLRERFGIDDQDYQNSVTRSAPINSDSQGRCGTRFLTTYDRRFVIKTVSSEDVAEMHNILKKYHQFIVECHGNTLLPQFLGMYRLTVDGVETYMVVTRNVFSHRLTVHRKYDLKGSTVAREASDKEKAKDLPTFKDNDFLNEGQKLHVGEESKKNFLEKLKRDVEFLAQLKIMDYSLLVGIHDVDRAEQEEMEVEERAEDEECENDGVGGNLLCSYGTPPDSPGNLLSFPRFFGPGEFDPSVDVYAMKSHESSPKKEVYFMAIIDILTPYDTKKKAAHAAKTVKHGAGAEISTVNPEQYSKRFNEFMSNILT
Summary of the method: as §1

[30] = target: PRKG1 (Homo sapiens (Human), UniProt Q13976)
Summary of the method: as §1

[31] = target: PRKG2 (Homo sapiens (Human), UniProt Q13237)
Summary of the method: as §1

[32] = target: RIPK1 (Homo sapiens (Human), UniProt Q13546)
Summary of the method: as §1

[33] = target: ROCK1 (Homo sapiens (Human), UniProt Q13464)
Summary of the method: as §1

[34] = target: ROCK2 (Homo sapiens (Human), UniProt O75116)
Summary of the method: as §1

[35] = target: RSK1(Kin.Dom.2-C-terminal) (Homo sapiens (Human), UniProt Q15418)
Chain of RSK1(Kin.Dom.2-C-terminal) (Q15418 418-675): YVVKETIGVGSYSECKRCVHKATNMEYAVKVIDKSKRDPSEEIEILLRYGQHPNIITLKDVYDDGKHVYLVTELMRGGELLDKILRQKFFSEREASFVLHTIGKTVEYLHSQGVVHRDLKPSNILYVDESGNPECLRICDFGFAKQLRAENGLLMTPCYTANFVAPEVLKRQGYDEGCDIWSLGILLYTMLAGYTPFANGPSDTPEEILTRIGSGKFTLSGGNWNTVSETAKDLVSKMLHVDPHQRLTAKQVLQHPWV
Summary of the method: as §1

[36] = target: STK35 (Homo sapiens (Human), UniProt Q8TDR2)
Summary of the method: as §1

[37] = target: TLK1 (Homo sapiens (Human), UniProt Q9UKI8)
Summary of the method: as §1

[38] = target: TRKC (Homo sapiens (Human), UniProt Q16288)
Chain of TRKC (Q16288 32-839): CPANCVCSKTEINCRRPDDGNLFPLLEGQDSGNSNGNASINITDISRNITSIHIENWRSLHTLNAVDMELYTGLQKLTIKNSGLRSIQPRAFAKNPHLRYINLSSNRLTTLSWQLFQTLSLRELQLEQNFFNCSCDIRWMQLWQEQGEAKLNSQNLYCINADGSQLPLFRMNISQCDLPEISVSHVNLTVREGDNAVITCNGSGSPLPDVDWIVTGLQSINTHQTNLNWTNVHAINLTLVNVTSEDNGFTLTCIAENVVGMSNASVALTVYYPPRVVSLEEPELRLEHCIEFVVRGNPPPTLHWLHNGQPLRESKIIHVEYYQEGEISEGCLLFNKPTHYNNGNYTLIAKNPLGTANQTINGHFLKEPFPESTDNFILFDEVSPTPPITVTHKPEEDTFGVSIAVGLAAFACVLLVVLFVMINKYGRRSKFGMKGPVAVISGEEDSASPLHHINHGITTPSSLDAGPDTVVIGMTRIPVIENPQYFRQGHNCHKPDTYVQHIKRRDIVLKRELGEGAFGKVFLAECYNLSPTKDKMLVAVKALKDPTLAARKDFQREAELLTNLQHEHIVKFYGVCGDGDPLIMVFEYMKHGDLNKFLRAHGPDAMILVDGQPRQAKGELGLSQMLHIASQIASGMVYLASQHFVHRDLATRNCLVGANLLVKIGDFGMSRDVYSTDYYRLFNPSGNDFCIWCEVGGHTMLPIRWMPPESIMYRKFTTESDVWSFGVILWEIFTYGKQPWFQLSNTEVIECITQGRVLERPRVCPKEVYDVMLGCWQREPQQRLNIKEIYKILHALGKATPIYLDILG
Summary of the method: as §1

[39] = target: TTK (Homo sapiens (Human), UniProt P33981)
Summary of the method: as §1

[40] = target: p38-gamma (Homo sapiens (Human), UniProt P53778)
Summary of the method: as §1

## CCNc1cc(Nc2ccc(C(=O)N3CCC(N4CCOCC4)CC3)cc2OC)nc2[nH]cc(C#N)c12 [Example 18, 4-(ethylamino)-6-((2-methoxy-4-(4-morpholinopiperidine-1-carbonyl)phenyl)amino)-1H-pyrrolo[2,3-b]pyridine-3-carbonitrile]
[1]
  remaining binding at 1 µM: 95%
[2]
  remaining binding at 1 µM: 87%
[3]
  remaining binding at 1 µM: 93%
[4]
  remaining binding at 1 µM: 92%
[5]
  remaining binding at 1 µM: 44%
[6]
  remaining binding at 1 µM: 94%
[7]
  remaining binding at 1 µM: 100%
[8]
  remaining binding at 1 µM: 100%
[9]
  remaining binding at 1 µM: 100%
[10]
  remaining binding at 1 µM: 77%
[11]
  remaining binding at 1 µM: 56%
[12]
  remaining binding at 1 µM: 87%
[13]
  remaining binding at 1 µM: 93%
[14]
  remaining binding at 1 µM: 20%
[15]
  remaining binding at 1 µM: 89%
[16]
  remaining binding at 1 µM: 7.6%
[17]
  remaining binding at 1 µM: 44%
[18]
  remaining binding at 1 µM: 97%
[19]
  remaining binding at 1 µM: 80%
[20]
  remaining binding at 1 µM: 93%
[21]
  remaining binding at 1 µM: 72%
[22]
  remaining binding at 1 µM: 81%
[23]
  remaining binding at 1 µM: 72%
[24]
  remaining binding at 1 µM: 71%
[25]
  remaining binding at 1 µM: 100%
[26]
  remaining binding at 1 µM: 87%
[27]
  remaining binding at 1 µM: 77%
[28]
  remaining binding at 1 µM: 100%
[29]
  remaining binding at 1 µM: 87%
[30]
  remaining binding at 1 µM: 64%
[31]
  remaining binding at 1 µM: 58%
[32]
  remaining binding at 1 µM: 94%
[33]
  remaining binding at 1 µM: 9.1%
[34]
  remaining binding at 1 µM: 7.8%
[35]
  remaining binding at 1 µM: 64%
[36]
  remaining binding at 1 µM: 85%
[37]
  remaining binding at 1 µM: 100%
[38]
  remaining binding at 1 µM: 93%
[39]
  remaining binding at 1 µM: 8.9%
[40]
  remaining binding at 1 µM: 77%

## CCNc1cc(Nc2ccc(C(=O)N3CCC(N4CCOCC4)CC3)cc2OC)nc2[nH]cc(C(F)(F)F)c12 [Example 57, (4-((4-(ethylamino)-3-(trifluoromethyl)-1H-pyrrolo[2,3-b]pyridin-6-yl)amino)-3-methoxyphenyl) (4-morpholinopiperidin-1-yl)methanone]
[1]
  remaining binding at 1 µM: 86%
[2]
  remaining binding at 1 µM: 61%
[3]
  remaining binding at 1 µM: 98%
[4]
  remaining binding at 1 µM: 88%
[5]
  remaining binding at 1 µM: 84%
[6]
  remaining binding at 1 µM: 94%
[7]
  remaining binding at 1 µM: 100%
[8]
  remaining binding at 1 µM: 85%
[9]
  remaining binding at 1 µM: 91%
[10]
  remaining binding at 1 µM: 79%
[11]
  remaining binding at 1 µM: 67%
[12]
  remaining binding at 1 µM: 100%
[13]
  remaining binding at 1 µM: 85%
[14]
  remaining binding at 1 µM: 50%
[15]
  remaining binding at 1 µM: 87%
[16]
  remaining binding at 1 µM: 70%
[17]
  remaining binding at 1 µM: 100%
[18]
  remaining binding at 1 µM: 94%
[19]
  remaining binding at 1 µM: 76%
[20]
  remaining binding at 1 µM: 66%
[21]
  remaining binding at 1 µM: 77%
[22]
  remaining binding at 1 µM: 100%
[23]
  remaining binding at 1 µM: 85%
[24]
  remaining binding at 1 µM: 70%
[25]
  remaining binding at 1 µM: 100%
[26]
  remaining binding at 1 µM: 93%
[27]
  remaining binding at 1 µM: 100%
[28]
  remaining binding at 1 µM: 78%
[29]
  remaining binding at 1 µM: 100%
[30]
  remaining binding at 1 µM: 98%
[31]
  remaining binding at 1 µM: 85%
[32]
  remaining binding at 1 µM: 92%
[33]
  remaining binding at 1 µM: 100%
[34]
  remaining binding at 1 µM: 100%
[35]
  remaining binding at 1 µM: 77%
[36]
  remaining binding at 1 µM: 98%
[37]
  remaining binding at 1 µM: 73%
[38]
  remaining binding at 1 µM: 100%
[39]
  remaining binding at 1 µM: 67%
[40]
  remaining binding at 1 µM: 77%
